Biological target: T1, μ-opioid receptor (Homo sapiens, UniProt P35372)
T1 construct: expressed in transfected cells; host or cells: HEK-293
Assay: μ-opioid receptor [35S]GTPγS functional assay
Type: biochemical
Settings: HEK-293 cells; for Emax: maximal effect relative to DAMGO
Protocol: [^35S]GTPγS functional assays were conducted using freshly thawed μ-receptor membranes prepared in-house from a cell line expressing recombinant μ opioid receptor in a HEK-293, CHO or U-2 OS cell background, or purchased from a commercial source (Perkin Elmer, Shelton, Conn.; or DiscovRx, Fremont, Calif.). Assay reactions were prepared by sequentially adding the following reagents to binding buffer (100 mM NaCl, 10 mM MgCl2, 20 mM HEPES, pH 7.4) on ice (final concentrations indicated): membrane protein (0.026 mg/mL), saponin ([…]), GDP ([…]) and [^35S]GTPγS (0.20 nM; Perkin Elmer, Shelton, Conn.). The prepared membrane solution (190 μl/well) was transferred to 96-shallow well polypropylene plates containing 10 μl of 20× concentrated stock solutions of the agonist [D-Ala^2, N-methyl-Phe^4 Gly-ol^5]-enkephalin (DAMGO) prepared in dimethyl sulfoxide (DMSO). Plates were incubated for 30 min at about 25° C. with shaking. Reactions were terminated by rapid filtration onto 96-well Unifilter GF/B filter plates (Perkin Elmer, Shelton, Conn.) using a 96-well tissue harvester (Perkin Elmer, Shelton, Conn.) followed by three filtration washes with 200 μl of ice-cold wash buffer (10 mM NaH2PO4, 10 mM Na2HPO4, pH 7.4). Filter plates were subsequently dried at 50° C. for 2-3 hours. BetaScint scintillation cocktail (Perkin Elmer, Shelton, Conn.) was added (50 μl/well) and plates were counted using a Packard Top-Count for 1 min/well. Data were analyzed using the sigmoidal dose-response curve fitting functions in GraphPad PRISM v. 3.0, or an in-house function for non-linear, sigmoidal dose-response curve-fitting.
μ GTP EC50 is the concentration of a compound providing 50% of the maximal response for the compound at a μ-opioid receptor.
μ GTP Emax (%) is the maximal effect elicited by a compound relative to the effect elicited by DAMGO, a standard agonist. Generally, the μ GTP Emax (%) value measures the efficacy of a compound to treat or prevent pain or other Conditions.
In TABLE 1, activity response of certain Compounds of the Invention to the μ-opioid receptors was determined as described above for functional assays using HEK-293 cells.

[1] = cell prints μM under an nM head
[2] = membranes with recombinant μ opioid receptor

T1 sequence (P35372 whole entry, species assumed): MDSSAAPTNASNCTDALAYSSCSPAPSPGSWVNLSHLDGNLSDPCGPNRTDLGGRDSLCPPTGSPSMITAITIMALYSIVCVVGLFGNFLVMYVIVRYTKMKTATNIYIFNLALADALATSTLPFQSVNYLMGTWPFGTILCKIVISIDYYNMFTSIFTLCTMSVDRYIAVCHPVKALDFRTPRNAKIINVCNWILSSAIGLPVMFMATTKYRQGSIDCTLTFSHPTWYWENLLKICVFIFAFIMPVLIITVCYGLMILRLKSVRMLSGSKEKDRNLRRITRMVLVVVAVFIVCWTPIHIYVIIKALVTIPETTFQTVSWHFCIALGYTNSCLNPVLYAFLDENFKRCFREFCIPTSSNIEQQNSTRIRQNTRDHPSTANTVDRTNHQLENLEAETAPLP

SMILES	EC50 [1] [µM]	Emax [%]	EC50 [2] [µM]
COc1ccc(CN2CC[C@]34CCN(C)[C@H](Cc5ccc(OC)cc53)[C@@H]4C2)cc1 [Compound 9, (4aS,5R,10bR)-9-methoxy-3-(4-methoxybenzyl)-13-methyl-2,3,4,4a,5,6-hexahydro-1H-5,10b-(epiminoethano)benzo[f]isoquinoline]	> 20	28.7 ± 1.45	
CN1CC[C@]23CCN(C(=O)C4CC4)C[C@H]2[C@H]1Cc1ccc(O)cc13 [Compound 31, Cyclopropyl ((4aS,5R,10bS)-9-hydroxy-13-methyl-1,2,4,4a,5,6-hexahydro-3H-5,10b-(epiminoethano)benzo[f]isoquinolin-3-yl)methanone]		49 ± 1.53	0.725 ± 0.0265
CC(=O)N1CC[C@]23CCN(C)[C@H](Cc4ccc(O)cc42)[C@@H]3C1 [Compound 29, 1-((4aS,5R,10bS)-9-hydroxy-13-methyl-1,2,4,4a,5,6-hexahydro-3H-5,10b-(epiminoethano)benzo[f]isoquinolin-3-yl)ethan-1-one]		64.7 ± 4.63	0.298 ± 0.0278
CN1CC[C@]23CCN(C(=O)Nc4ccccc4)C[C@H]2[C@H]1Cc1ccc(O)cc13 [Compound 33, (4aS,5R,10bS)-9-hydroxy-13-methyl-N-phenyl-1,2,4,4a,5,6-hexahydro-3H-5,10b-(epiminoethano)benzo[f]isoquinoline-3-carboxamide]		54.7 ± 8.35	0.152 ± 0.00519
CN1CC[C@]23CC(=O)NC[C@H]2[C@H]1Cc1ccc(O)cc13 [Compound 24, (4aS,5R,10bS)-9-hydroxy-13-methyl-4,4a,5,6-tetrahydro-1H-5,10b-(epiminoethano)benzo[f]isoquinolin-2(3H)-one]		52 ± 2.08	1.38 ± 0.104
CN1CC[C@]23CCN(CC4CC4)C[C@H]2[C@H]1Cc1ccc(O)cc13 [Compound 27, (4aS,5R,10bR)-3-(cyclopropylmethyl)-13-methyl-2,3,4,4a,5,6-hexahydro-1H-5,10b-(epiminoethano)benzo[f]isoquinolin-9-ol]		44.4 ± 2.5	14 ± 1.94
CC(C)C(=O)N1CC[C@]23CCN(C)[C@H](Cc4ccc(O)cc42)[C@@H]3C1 [Compound 30, 1-((4aS,5R,10bS)-9-hydroxy-13-methyl-1,2,4,4a,5,6-hexahydro-3H-5,10b-(epiminoethano)benzo[f]isoquinolin-3-yl)-2-methylpropan-1-one]		37.2 ± 1.18	0.733 ± 0.0407
CN1CC[C@]23CC(=O)N(CC4CC4)C[C@H]2[C@H]1Cc1ccc(O)cc13 [Compound 26]		67.7 ± 1.2	0.881 ± 0.183
CN1CC[C@]23CCN(Cc4ccc(O)cc4)C[C@H]2[C@H]1Cc1ccc(O)cc13 [Compound 23, (4aS,5R,10bR)-3-(4-hydroxybenzyl)-13-methyl-2,3,4,4a,5,6-hexahydro-1H-5,10b-(epiminoethano)benzo[f]isoquinolin-9-ol]		51.7 ± 2.85	1.59 ± 0.0616
COc1ccc2c(c1)[C@]13CCN(C)[C@H](C2)[C@@H]1CNC(=O)C3 [Compound 11, (4aS,5R,10bS)-9-methoxy-13-methyl-4,4a,5,6-tetrahydro-1H-5,10b-(epiminoethano)benzo[f]isoquinolin-2(3H)-one]	> 20	57.8 ± 2.68	
COc1ccc(CN2C[C@H]3[C@H]4Cc5ccc(OC)cc5[C@@]3(CCN4C)CC2=O)cc1 [Compound 8, (4aS,5R,10bS)-9-methoxy-3-(4-methoxybenzyl)-13-methyl-4,4a,5,6-tetrahydro-1H-5,10b-(epiminoethano)benzo[f]isoquinolin-2(3H)-one]	> 20	70.3 ± 1.67	
CN1CC[C@]23CCNC[C@H]2[C@H]1Cc1ccc(O)cc13 [Compound 25, (4aS,5R,10bR)-13-methyl-2,3,4,4a,5,6-hexahydro-1H-5,10b-(epiminoethano)benzo[f]isoquinolin-9-ol]		43.7 ± 1.45	8.36 ± 0.929
CN1CC[C@]23CC(=O)N(Cc4ccccc4)C[C@H]2[C@H]1Cc1ccc(O)cc13 [Compound 28]		58.7 ± 4.84	2.73 ± 0.392
CN1CC[C@]23CCN(C)[C@H](Cc4ccc(O)cc42)[C@@H]3C1 [Compound 32, (4aS,5R,10bR)-3,13-dimethyl-2,3,4,4a,5,6-hexahydro-1H-5,10b-(epiminoethano)benzo[f]isoquinolin-9-ol]		71.7 ± 3.18	1.07 ± 0.14

— patent publication US10202382B2 (Purdue Pharma L.P., priority 2014, dated 2019)
